Results on 14 compounds are retold here after patent US8871735B2, “Methods and compositions for providing cardiac protection” (University of Medicine and Dentistry of New Jersey, priority 2008, dated 2014).

Where “and” joins values, the source holds several entries; their conditions need not be identical. Equal values may be shown once. Entries after “also recorded” stand apart in the source; their conditions may differ. Read-outs that look alike come from different tables or passages of the source.

What is called IC50 is the concentration that gives 50% inhibition.

Experiment [1] relates to H9C2 cells. The experiment can be described thus: cAMP accumulation in H9C2 cells. It is filed as cell-based. As to conditions: 5 μM ISO, 3 minutes, 10 μM drug. The text has this:
[…] Fludarabine ((+)-2-Fluoro-9-(5-O-phosphono-β-D-arabinofuranosyl)-9H-purin-6-amine) and Cladribine (2-chloro-2′-deoxyadenosine) are anti-cancer drugs, Adefovir (Bis(2,2-dimethylpropanoyloxymethyl)[2-(6-amino-9H-purin-9-yl)ethoxymethyl]phosphonate) and Zidovudine are anti-HIV drugs. Zidovudine-TP is a metabolite of zidovudine which inhibits virus replication. TP; triphosphate. 3-Deazaadenosine, Formycin A (7-Amino-3-(β-D-ribofuranosyl)-1H-pyrazolo[4,3-d]pyrimidine), 2-Far (2-Fluoroadenosine), formycin A ((2S,3R,4S,5R)-2-(7-amino-2H-pyrazolo[5,4-e]pyramidin-3-yl-5-(hydroxymeth-yl)oxolane-3,4-diol), 2-FD (2-Fluoro-2′-deoxyadenosine) and 2′5′ ddAdo (2′5′-dideoxyadenosine) are experimental drugs.
(§1) Mice were anesthetized with 2.5% tribromoethanol (0.010 to 0.015 mL per gram of body weight) injected intraperitoneally, and echocardiography was performed with ultrasonography (ACUSON Sequoia C256, Siemens Medical Solutions, Malvern, Pa.). For acute injection of isoproterenol, forskolin and milrinon, a PE-10 catheter was inserted into the right jugular vein, and drugs were injected at the rate of 1 μl/s. cAMP accumulation assay in H9C2 cells, a cardiac myoblast cell line, was examined as previously described.
In general terms: cAMP levels reflect the balance of adenylyl cyclase and phosphodiesterase activity.

In experiment [2] the target is type 5 AC (Homo sapiens, UniProt O95622). Nature of the experiment: Double-reciprocal plots of type 5 AC catalytic activity against ATP.
type 5 AC, sequence (O95622 whole entry, the tested form may be a part): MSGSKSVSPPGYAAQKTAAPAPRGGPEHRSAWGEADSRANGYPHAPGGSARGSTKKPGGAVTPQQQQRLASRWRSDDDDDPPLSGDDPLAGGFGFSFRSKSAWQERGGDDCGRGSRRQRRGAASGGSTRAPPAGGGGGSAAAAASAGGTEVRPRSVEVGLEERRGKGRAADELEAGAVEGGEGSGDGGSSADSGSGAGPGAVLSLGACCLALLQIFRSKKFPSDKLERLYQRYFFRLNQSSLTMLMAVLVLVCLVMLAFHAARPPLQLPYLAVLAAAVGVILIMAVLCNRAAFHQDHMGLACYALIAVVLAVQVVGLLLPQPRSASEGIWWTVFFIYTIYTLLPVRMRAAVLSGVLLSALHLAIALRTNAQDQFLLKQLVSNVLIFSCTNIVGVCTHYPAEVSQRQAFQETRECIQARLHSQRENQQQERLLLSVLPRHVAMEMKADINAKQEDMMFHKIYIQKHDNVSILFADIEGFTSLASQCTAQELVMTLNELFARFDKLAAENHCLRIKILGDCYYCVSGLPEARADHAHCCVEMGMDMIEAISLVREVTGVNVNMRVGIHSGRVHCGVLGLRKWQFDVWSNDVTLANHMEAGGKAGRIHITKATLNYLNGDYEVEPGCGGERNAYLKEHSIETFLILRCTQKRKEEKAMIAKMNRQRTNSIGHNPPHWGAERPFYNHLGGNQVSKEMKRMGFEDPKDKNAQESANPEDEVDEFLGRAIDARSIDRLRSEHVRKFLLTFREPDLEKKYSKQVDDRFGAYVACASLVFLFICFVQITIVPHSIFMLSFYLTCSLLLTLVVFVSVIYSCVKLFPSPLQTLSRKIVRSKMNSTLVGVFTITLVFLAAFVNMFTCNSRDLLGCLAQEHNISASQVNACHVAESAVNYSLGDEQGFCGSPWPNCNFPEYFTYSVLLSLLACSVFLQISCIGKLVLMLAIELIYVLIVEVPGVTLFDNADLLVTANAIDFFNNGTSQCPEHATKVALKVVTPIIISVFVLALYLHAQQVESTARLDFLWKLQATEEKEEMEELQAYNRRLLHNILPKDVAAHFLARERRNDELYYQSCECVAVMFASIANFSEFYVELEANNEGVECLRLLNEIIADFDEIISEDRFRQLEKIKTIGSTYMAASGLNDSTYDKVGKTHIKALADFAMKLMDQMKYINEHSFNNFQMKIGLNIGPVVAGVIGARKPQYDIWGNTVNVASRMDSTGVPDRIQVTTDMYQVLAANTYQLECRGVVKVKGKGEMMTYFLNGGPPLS
Description: Hearts and striatum were dissected from the mice and membrane preparations were made as previously described. This crude membrane preparation was used in the AC assay. AC activity was measured by a modification of the method of Salomon et al. as previously described. […] Double-reciprocal plots were examined as previously described.
The test system of experiment [3] is cardiac myocytes. Nature of the experiment: ISO-induced apoptosis in cultured cardiac myocytes (DNA fragmentation ELISA). It is filed as cell-based. Conditions: 100 μM ISO, 48 h. (In general: ELISA stands for enzyme-linked immunosorbent assay.)
Description: Cultured cardiac myocytes were incubated with 100 μM ISO in the presence or absence of AC5 inhibitors at the indicated concentrations for 48 h.
Experiment [4] has as its system C57Bl/6 mice, chronic ISO infusion. Nature of the experiment: Chronic ISO infusion heart failure model. In kind it is in vivo, mouse.
Text: ISO with or without AC5 inhibitors were chronically infused with osmotic mini-pump implanted subcutaneously at indicated doses for 1 week in c57Bl/6 mice. Mice were then subjected to echocardiography (a) and the hearts were removed and subjected to pathological examinations such as myocardial apoptosis (b) and fibrosis (c). n=4-8.
In C57Bl/6 mice, ISO with or without AC5 inhibitors or metoprolol were chronically infused with an osmotic mini-pump at the indicated doses for 1 week. Mice were then subjected to echocardiography (a) and heart tissue were subjected to a myocardial apoptosis assay (b). *, p<0.01 vs vehicle. #, p<0.05 vs vehicle. .dagger., p<0.01 vs ISO. .dagger-dbl., p<0.05 vs ISO. n=4-15. […] Comparisons between multiple groups were made using ANOVA with post-hoc tests.
Tenofovir diphosphate (PMPA-PP), zidovudine monophosphate (MP), zidovudine diphosphate (PP), zidovudine triphosphate (TP), famciclovir penciclovir and valaciclovir were purchased from Moravek. Formycin A (FMA) and Formycin B (FMB) were purchased from Berry and Associates. All other reagents were from Sigma unless specified. Long-term infusion of isoproterenol (Sigma, St. Louis, Mo.) was performed for 7 days at a dose of 60 mg/kg/d with or without AC5 inhibitors by using a miniosmotic pump (ALZET model 2001, DURECT Corp, Cupertino, Calif.). Control mice received vehicle in pumps. Pumps were removed 24 hours before biochemical and physiological studies. Experiments were performed in 3- to 5-month-old male C57Bl/6, and in AC5Tg transgenic mice. This study was approved by the Animal Care and Use Committee at New Jersey Medical School.
as §1

Experiment [5] has as its system AC5. Nature of the experiment: AC inhibition, recombinant AC proteins: AC5. It is filed as biochemical.
The target in experiment [6] is T1, AC5 (UniProt P30803).
T1 construct: IC50 AC5; other: recombinant AC proteins; other: THFA: in the presence of Gs-α/GTPαS/forskolin
Nature of the experiment: AC inhibition, recombinant AC proteins: AC5. In kind it is biochemical. Conditions: read-out: IC50 for AC5.

For experiment [7], the system named is WT and AC5KO mice. Nature of the experiment: Heart rate and arterial pressure in conscious WT and AC5KO mice. In kind it is in vivo, mouse. Conditions: for decrease in HR in conscious AC5KO / decrease in HR in conscious WT: 0.01 μg/g (0.01 mg/kg) i.v. The text has this: In AC5KO and WT mice, four ECG wires (New England Electric Wire Corporation, Lisbon, N.H., USA) were placed subcutaneously, a silicone elastomer tubing (Cardiovascular Instrument Corp., Wakefield, Mass., USA) was inserted into the right external jugular vein and a 1.4 F micromanometer catheter (Millar Instruments, Inc., Houston, Tex., USA) was inserted into the lower abdominal aorta via the femoral artery as described previously with some modifications. The ECG wires, the silicone elastomer tubing and the micromanometer catheter were tunneled subcutaneously to the back, externalized, and secured in a plastic cap. On the day of the study, each mouse was placed in the mouse holder, the jugular venous catheter was accessed and connected to a microliter syringe (Hamilton Co., Reno, Nev., USA), the 1.4 F micromanometer catheter was connected to a recorder (Dash 4u; Astro-Med, Inc., West Warwick, R.I., USA) and the ECG wires were connected to an ECG amplifier (Gould Inc., Cleveland, Ohio, USA). All experiments were recorded with animals in the conscious state. After at least 6 hours recovery from the implantation of the catheter, when a stable heart rate (HR) was achieved, the baseline ECG and arterial pressure (AP) were recorded for 5 min. Ach (0.05 μg/g) was then administered intravenously (i.v.), and the ECG and AP recording were repeated. A recovery period of 15 min was allowed for the HR and AP to return to baseline before administering the next drug. Baseline HR slowing was examined in response to phenylephrine (0.2 μg i.v.).
Electrocardiogram (ECG) wires, a jugular vein catheter for drug infusion, and a femoral artery catheter for arterial pressure monitoring were implanted under anesthesia. Measurements of left ventricular ejection fraction (LVEF) were taken using echocardiography under anesthesia with 2.5% tribromomethanol (0.010-0.015 ml/g body wt) injected intraperitoneally (i.p.). Intravenous (i.v.) infusion of ISO (0.04 μg/kg/min i.v. for 5 min) was performed using an infusion pump. To examine the responses to a muscarinic agonist, acetylcholine (ACh) (25 mg/kg i.p.) was co-administered i.p. during the i.v. infusion of ISO (0.04 μg/kg/min). In addition, in conscious mice ACh (0.01 and 0.05 mg/kg), atropine (0.25, 1 and 2 mg/kg), or verapamil (0.75 mg/kg) were administered i.v., and the ECG was recorded. A recovery period of 15 min was allowed for the HR to return to baseline before administering the next drug. To examine HR responses to baroreflex hypertension, phenylephrine (0.2 mg/kg i.v.) was infused, and the ECG and arterial pressure were measured.

The subject of experiment [8] is AC. The experiment can be described thus: AC activity in heart membranes from WT and AC5KO mice. In kind it is biochemical, mouse. The procedure: Protein concentration was measured by the method of Bradford using bovine serum albumin as a standard. AC activity was measured as described previously. AC activity was linear within the incubation time up to 30 min. In order to harvest hearts for tissue cAMP content measurements, mice were allowed to acclimate to the surroundings in the laboratory for an hour before sacrifice. Freshly isolated hearts were briefly immersed in liquid nitrogen. The tissue was homogenized in ice-cold 6% percholic acid, and cAMP was extracted as described before. The concentration of cAMP was determined with an RIA kit (PerkinElmer Life Sciences, Boston, Mass., USA).
cAMP production in membranes from the hearts of AC5KO and WT at 6 months of age was examined. The steady state AC activity was determined as the maximal capacity of cAMP production in the presence of ISO (100 μM ISO+100 μM GTP), GTPγS (100 μM) or forskolin (100 μM). […] Basal cardiac function was not decreased, but the response to ISO and muscarinic inhibition of ISO were attenuated.
Protein concentration was measured by the Bradford method using bovine serum albumin as a standard. AC activity was measured as described previously. AC activity was linear within the incubation time up to 30 min. For the study of Ca^2+ inhibition, the membranes were treated first with EGTA to extract the endogenous Ca^2+ prior to the assay. Free Ca^2+ concentrations were obtained with the use of 200 μmol/L EGTA buffers as described previously. The experiments with Ca^2+ inhibition were conducted in the presence of 100 μmol/L isoproterenol (ISO) plus 100 μmol/L GTP.
cAMP production in membranes from the hearts of AC5KO and WT mice at the age of 6 months were examined. The steady state AC activity in the membrane preparation was determined as the maximal capacity of cAMP production in the presence of ISO ([…], ISO+100 μmol/L GTP), guanosine-5′-O-(3-triophosphate) GTP[…]S (100 μmol/L), or forskolin (100 μmol/L). AC activity was decreased in AC5KO relative to that of WT by 35+/−4% (basal), 27+/−5% (ISO), 27+/−2% (GTPγS), and 40+/−5% (forskolin).

For the compound `CC(Cn1cnc2c(N)ncnc21)OCP(=O)(O)OP(=O)(O)OP(=O)(O)O` (stereo in doubt) [PMPA-PP, Tenofovir diphosphate], the “inhibition of cAMP accumulation in H9C2 cells” value (shortened to “inhibition of cAMP accumulation”) in experiment [1] was “little inhibition”.

In the case of `Nc1nc(F)nc2c1ncn2[C@@H]1O[C@H](CO)[C@@H](O)[C@H]1O` [2-fluoroadenosine, 2-Fluoroadenosine], in experiment [2], the “mode of inhibition with respect to ATP” value was “non-competitive”. For the same compound, the “inhibition of cAMP accumulation” value in experiment [1] was “moderately inhibited”.

For the compound `C[C@H]1O[C@@H](n2cnc3c(N)ncnc32)C[C@@H]1O` [2′5′-dd-Ado, 2′5′-dideoxyadenosine], the “mode of inhibition with respect to ATP” value in experiment [2] is “non-competitive”. In addition, the “inhibition of cAMP accumulation” value in experiment [1] is reported as “greatest inhibition”. Moreover, the “ISO-induced apoptosis in cultured cardiac myocytes” value in experiment [3] is “abolished”. For the same compound, in experiment [4] (ISO 60 mg/kg/d 7 days, Ara-Ade 20 and 100 mg/kg/day, 2′5′ ddAdo 20 mg/kg/day), the “ISO-induced decrease in LVEF (and FS)” value is “rescued LVEF and FS reduction”. In experiment [4] (chronic ISO infusion), the ISO-induced cardiac fibrosis result is “significantly inhibited”; the “ISO-induced myocardial apoptosis in vivo” value is “significantly inhibited”; the “ISO-induced wall thickening (DESP, DPW)” value is recorded as “neither Ara-Ade nor 2′5′ ddAdo inhibited”; the “LVW/BW and myocyte cross sectional area” value is reported as “increased”. Besides, the “Selectivity ratio for AC5, AC5/AC2” value in experiment [5] (ratio of IC50 for AC5 to that for AC2) came out at 0.00067. The “Selectivity ratio for AC5, AC5/AC3” value in experiment [5] (ratio of IC50 for AC5 to that for AC3) amounted to 0.0063.

As for `Nc1ncnc2c1ncn2[C@H]1C[C@H](OP(=O)(O)O)[C@@H](CO)O1` [2′-d-3′-AMP], in experiment [6], the half-inhibitory concentration (IC50) is 0.82 µM.

Take `Nc1ncnc2c1ncn2[C@@H]1O[C@H](CO)[C@@H](OP(=O)(O)O)[C@H]1O` [3′-AMP]: in experiment [6] (THFA: in the presence of Gs-α/GTPαS/forskolin), the concentration for half-maximal inhibition (IC50) was 14.6 µM.

Consider `CC(=O)OCC[N+](C)(C)C` [ACh, acetylcholine], for which the “decrease in HR in conscious AC5KO” value is on record as 1.3% in experiment [7] (AC5KO) and 7.5% in experiment [7] (AC5KO, listed as Ach). The “decrease in HR in conscious WT” value in experiment [7] (WT) stood at 15%; in experiment [7] (WT, listed as Ach) it was 22%.

For `C[N+](C)(C)CCOC(N)=O` [Carbachol], in experiment [8] (10 μM, AC5KO heart membranes), the “inhibition of ISO-stimulated AC activity in AC5KO” value is “did not inhibit; also recorded: hardly detectable”. The “decrease of ISO-stimulated AC activity in WT” value in experiment [8] (10 μM, WT heart membranes) is 21+/−3.4% and 21+/−3%.

`Nc1ncnc2c([C@@H]3O[C@H](CO)[C@@H](O)[C@H]3O)n[nH]c12` [FMA, 7-Amino-3-(β-D-ribofuranosyl)-1H-pyrazolo[4,3-d]pyrimidine]: the “inhibition of cAMP accumulation” value in experiment [1] is on record as “moderately inhibited”.

Consider `CC(C)NCC(O)c1ccc(O)c(O)c1` (centres unmarked) [ISO, isoproterenol], for which, in experiment [8] (100 μmol/L ISO + 100 μmol/L GTP, AC5KO), the “increase in AC activity in AC5KO” value is 64+/−4 pmol/15 min/mg. Further, in experiment [8] (100 μmol/L ISO + 100 μmol/L GTP, WT), the “increase in AC activity in WT” value was 78+/−6 pmol/15 min/mg.

Consider `CNC[C@H](O)c1cccc(O)c1` [Phenylephrine], for which the systolic arterial pressure result in experiment [7] (0.2 μg/g (0.2 mg/kg) i.v., WT and AC5KO) is “increased systolic arterial pressure significantly in both WT and AC5KO; also recorded: increased systolic arterial pressure similarly in both WT and AC5KO”.

With `CN1[C@@H]2CC[C@H]1C[C@@H](OC(=O)C(CO)c1ccccc1)C2` (some centres unmarked) [atropine], in experiment [7] (1 μg/g i.v., AC5KO), the “increase in HR in AC5KO” value was 19+/−7.5 beats/min. Moreover, the “increase in HR in WT” value in experiment [7] (1 μg/g i.v., WT) is 102+/−22.2 beats/min.

With `Nc1nc(Cl)nc2c1ncn2[C@H]1C[C@H](O)[C@@H](CO)O1` [cladribine, 2-chloro-2′-deoxyadenosine], the “inhibition of cAMP accumulation” value in experiment [1] is on record as “slight inhibition”.

With `COc1ccc(CCN(C)CCCC(C#N)(c2ccc(OC)c(OC)c2)C(C)C)cc1OC` (centres unmarked) [verapamil], the “change in HR in AC5KO” value in experiment [7] (0.75 mg/kg i.v., AC5KO) is −33+/−10 beats/min. Besides, in experiment [7] (0.75 mg/kg i.v., WT), the “change in HR in WT” value is reported as −36+/−10 beats/min.

Take `Cc1cn([C@H]2C[C@H](N=[N+]=[N-])[C@@H](COP(=O)(O)OP(=O)(O)OP(=O)(O)O)O2)c(=O)[nH]c1=O` [zidovudine-TP, zidovudine triphosphate]: the “mode of inhibition with respect to ATP” value in experiment [2] was “competitive”. Moreover, in experiment [1], the “inhibition of cAMP accumulation” value was “little inhibition”.
